This note sets out measurements from the METLIN SMRT retention time set (Domingo-Almenara et al. 2019).

A short description of the data set: gradient 5% acetonitrile 3 min, to 50% in 2 min, to 85% in 15 min, held 3 min, 100 µL/min. As to conditions: column: Zorbax Extend-C18 2.1 x 50 mm; eluents: water / acetonitrile, 0.1% formic acid. The gist of the method: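 Using water and acetonitrile that each contained 0.1% formic acid, mixtures of ~100 pure standards were separated at 100 μL/min on a Zorbax Extend-C18 column (2.1 × 50 mm, 1.8 μm). The HPLC fed a quadrupole time-of-flight mass spectrometer working in positive and negative ionization mode, with dead and dwell volumes of 40 μL and 900 μL. Data were acquired over 3 months. Retention time was read from computationally picked adduct peaks after manual inspection of each.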
With `Cc1cc(Br)ccc1NC(=O)Cn1cnc2nc3c(cc2c1=O)CCCC3`, the RP-LC retention time was determined as 777 s.
As to `COCCCNCc1c(C(=O)O)c(C)n(Cc2ccc(Cl)cc2)c1C`, the RP-LC retention time worked out at 672 s.
In the case of `Cc1ccc(S(=O)(=O)n2nc(-c3ccc(C)c(C)c3)nc2N)cc1`, the RP-LC retention time is 1000 s.
Next, `Cc1ccc(NC(=O)N2CCc3c(c(-c4nc(C)no4)nn3C)C2)cc1`: 750 s; `Cc1nc(C)c(C(=O)N/N=C/c2ccc(N(CCCl)CCCl)cc2)s1`: 942 s; `CCOC(=O)c1ccc(NC(=O)CCc2c(-c3ccc(F)cc3)nc3ccccn23)cc1`: 700 s.
Next, `CN(C)C(=O)c1cn(-c2ccc(-c3nc(C(C)(C)C)no3)cn2)cn1`: 808 s; `O=C(Cn1cc(-c2nnc(-c3ccco3)o2)c2ccccc21)N1CCCC1`: 724 s.
In turn, `COc1ccc(CCn2c(-c3cccs3)nc3c(c(=O)c4ccccc4n3C)c2=O)cc1` gave an RP-LC retention time of 880 s.
Next, `CCOc1ccccc1N1CCN(C(=O)c2csc(C(=O)NC3CC3)n2)CC1`: 790 s.
Then `O=C(NCCn1c(=O)n(Cc2ccc(F)cc2)c2cccnc21)c1cccs1`, with 772 s; and `CC(C)CCNS(=O)(=O)c1ccc(-c2cc(C(F)(F)F)on2)o1`, with 1090 s.
As for `CCc1ccccc1NC(=O)N(C)CCc1noc(COc2ccccc2F)n1`, the RP-LC retention time is 907 s.
Then `Cn1c(=O)c2c(nc3n(CCN4CCOCC4)c(C(C)(C)C)cn23)n(C)c1=O`, with 552 s; and `O=C(Cc1ccccc1Br)N1CCN(c2cc(-c3ccccc3)[nH]n2)CC1`, with 853 s; and `O=C(c1ccc(CS(=O)(=O)c2cccc(C(F)(F)F)c2)o1)N1CCN(c2ccccn2)CC1`, with 645 s.
Next, `CC(C)c1ccc(N2C=C(C(=O)N3CCCCC3)S(=O)(=O)c3ccccc32)cc1`: 1040 s.
Next, `O=C([C@@H]1C[C@H](F)CN1S(=O)(=O)c1ccccc1F)N1CCc2ccccc2C1`: 887 s; `COC(=O)c1ccc(C(=O)Nc2cccc3c(OC)cccc23)cc1`: 821 s.
Compound `CCOC(=O)c1nn(-c2ccccc2)c(=O)cc1NCc1ccccn1` had an RP-LC retention time of 649 s.
Turning to `Cc1ccsc1C(=O)NC1CCN(c2cc(-c3ccccc3)[nH]n2)C1` (stereo not drawn), the RP-LC retention time came out at 704 s.
Then `CCc1cc(=O)n(CC(=O)NC(C)CCc2ccccc2)c(-c2ccccc2)n1` (stereo not drawn), with 1190 s; and `CCNC(=O)c1n[nH]c2c1CN(C(=O)c1ccc(OC(F)(F)F)cc1)CC2`, with 728 s; and `COCCOc1ccc2c(n1)CCN(C(=O)NCCC(C)C)C2`, with 762 s.
Then `CCCc1cc(=O)n(CC(=O)Nc2ccc(C)cc2Cl)c(-c2ccc(Cl)cc2)n1`, with 1080 s; and `O=C(c1ccc2[nH]ccc2c1)N1C[C@@H]2C[C@H]1C[C@@H]2NS(=O)(=O)c1ccccc1`, with 730 s.
Next, `CCOC(=O)COC(=O)c1cn(-c2ccc(F)cc2)c(=O)c2ccccc12`: 1030 s.
For `CC(C)c1noc(N2CCC(COc3ccc(-c4ccc(S(C)(=O)=O)cc4)nc3)CC2)n1`, the RP-LC retention time stood at 991 s.
Then `Cc1nn(-c2ccc(N3CCCCC3)nn2)c(C)c1CCC(=O)N1CCN(c2ccccn2)CC1`, with 594 s; and `CCc1cccc(C)c1NC(=O)COc1cc(C)nc(N2CCN(c3ccccc3)CC2)n1`, with 946 s.
Then `COc1ccc(-c2ncc3c(n2)CCN(C(=O)Nc2cccc(Cl)c2C)C3)cc1`, with 1170 s; and `CCOc1ccc(C2C(=O)N(C3CCCCC3)CC(=O)N2Cc2ccco2)cc1OC` (stereo not drawn), with 879 s.
`Cc1nnc2cc(N3CCN(Cc4csc5c4CCCC5)CC3)cnn12` displayed an RP-LC retention time of 589 s.
The compound `O=C(Cn1nc2c3ccccc3ncn2c1=O)NCCc1ccc(Cl)cc1` had an RP-LC retention time of 707 s.
Next, `CC(CCc1ccccc1)NCc1ccc2c(c1)n(C)c(=O)n2C` (stereo not drawn): 610 s.
Next, `CC1CCN(S(=O)(=O)c2cc(C(=O)N3CCN(c4ccccc4F)CC3)n(C)c2)CC1`: 1050 s; `CCCn1c(=O)sc2cc(S(=O)(=O)N3CCC(C(=O)N4CCN(C)CC4)CC3)ccc21`: 628 s; `CCOc1ccccc1-n1ccn(Cc2nc(-c3ccc(C)cc3)no2)c(=O)c1=O`: 920 s.
Next, `Cn1nc(-c2nnc(-c3ccccc3)o2)c2c1CCN(S(=O)(=O)c1ccccc1Cl)C2`: 938 s; `CCCN1C(=O)COc2ccc(-c3noc(-c4cncc(Br)c4)n3)cc21`: 1160 s.
For `COc1ccc(NC(=O)CN2CCc3[nH]c4c(C)ccc(C)c4c(=O)c3C2)cc1OC`, the RP-LC retention time worked out at 614 s.
Then `COc1cc(Cl)ccc1C(=O)N1CCN(c2nc3ccncc3n(C)c2=O)CC1`, with 638 s.
Then `CCOc1ccc(S(=O)(=O)N2CCC(C(=O)NCc3cccnc3)CC2)cc1`, with 623 s; and `c1ccc(Cn2cnnc2C2CCCCN2Cc2ccoc2)cc1` (stereo not drawn), with 601 s; and `CCCCn1cnc2c(-c3ccccc3)cn(CC(=O)N3CCCC3)c2c1=O`, with 836 s.
Then `CCN1CCCc2cc(C(=O)NCc3ccc(OC)cc3OC)sc21`, with 973 s; and `CO[C@H]1C(=O)N(C(C)C)[C@H]1C1CCN(S(=O)(=O)c2cccc(F)c2)CC1`, with 860 s.
For the compound `O=C(Nc1cccc(Cl)c1)N1CCC(n2c(-c3ccco3)nc3cccnc32)C1` (stereo not drawn), the RP-LC retention time is 800 s.
`Cc1cc(C)n(Cc2c(C(=O)NCC3Cn4cccc4C(=O)N3C)noc2C)n1` (stereo not drawn) gave an RP-LC retention time of 688 s.
Take `Cc1ccc(-c2nnc(Cc3nc(-c4ccccc4Cl)no3)o2)cc1C`: the RP-LC retention time was found to be 1230 s.
Then `O=C(Nc1ccc(Oc2ccc(NC(=O)Nc3ccc([N+](=O)[O-])cc3)cc2)cc1)Nc1ccc([N+](=O)[O-])cc1`, with 1110 s; and `CC(C)c1ccc(CNC(=O)c2cn3c(n2)CCCC3)cc1`, with 675 s; and `CC(=O)N1CCc2cc(-c3ccc(C(=O)NCCN4CCCCC4C)cc3)ccc21` (stereo not drawn), with 622 s.
Next, `CC(C)CC(=O)Nc1cc2c(cc1S(=O)(=O)c1ccccc1)n(C)c(=O)n2C`: 786 s; `O=C(CCc1nc(N2CCCCC2)c2c(-c3ccccc3)noc2n1)NC1CC1`: 909 s.
Next, `CCOC(=O)c1ccc(NC(=O)CSc2ccc(N3CCCC(C(=O)NC4CC4)C3)nn2)cc1` (stereo not drawn): 678 s.
Compound `COCC(C)(O)CNC(=O)c1cn(C)nc1OC` (stereo not drawn) displayed an RP-LC retention time of 561 s.
Then `CC(C(=O)N1CCN(c2ccccn2)CC1)C1CCN(C(=O)c2cc3cc(Cl)ccc3[nH]2)CC1` (stereo not drawn), with 675 s.
